Data reported in ChEMBL document CHEMBL1128685, “Novel and potent adenosine 3',5'-cyclic phosphate phosphodiesterase III inhibitors: thiazolo[4,5-b][1,6]naphthyridin-2-ones” (J Med Chem, 1995).

Each compound was assayed against Phosphodiesterase 3 (Homo sapiens, UniProt Q14432+Q13370) (assay: Inhibition of cAMP PDE 3).
Assay type: protein assay
For CCCc1nccc2nc3nc(O)sc3cc12, the IC50 was 67 nM.
In the case of Cc1nccc2nc3nc(O)sc3cc12, the IC50 is reported as 62 nM.
Compound CCc1nccc2nc3nc(O)sc3cc12 has an IC50 of 22 nM.
For Oc1ccc(-c2nccc3nc4nc(O)sc4cc23)cc1, the IC50 was 240 nM.
Compound O=[N+]([O-])c1cc(-c2nccc3nc4nc(O)sc4cc23)ccc1O has an IC50 of 83 nM.
CC(C)Cc1nccc2nc3nc(O)sc3cc12 showed an IC50 of 330 nM.
With Oc1nc2nc3ccnc(-c4ccccc4)c3cc2s1 the IC50 was 430 nM.
